In US20010044151A1, “Ligands for modulating the expression of exogenous genes via an ecdysone receptor complex” (priority 1998, published 2001):

Biological target: T1, VgEcR and RXR heterodimeric receptor (pVgRXR) with pIND/luc in CHO cells (Drosophila melanogaster, UniProt P34021, E282G/G283S/G286V)
T1 construct: host or cells: CHO cells (ATCC CCL-61), transiently transfected or stably transformed with pVgRXR
T1 sequence (P34021 1-878 E282G/G283S/G286V): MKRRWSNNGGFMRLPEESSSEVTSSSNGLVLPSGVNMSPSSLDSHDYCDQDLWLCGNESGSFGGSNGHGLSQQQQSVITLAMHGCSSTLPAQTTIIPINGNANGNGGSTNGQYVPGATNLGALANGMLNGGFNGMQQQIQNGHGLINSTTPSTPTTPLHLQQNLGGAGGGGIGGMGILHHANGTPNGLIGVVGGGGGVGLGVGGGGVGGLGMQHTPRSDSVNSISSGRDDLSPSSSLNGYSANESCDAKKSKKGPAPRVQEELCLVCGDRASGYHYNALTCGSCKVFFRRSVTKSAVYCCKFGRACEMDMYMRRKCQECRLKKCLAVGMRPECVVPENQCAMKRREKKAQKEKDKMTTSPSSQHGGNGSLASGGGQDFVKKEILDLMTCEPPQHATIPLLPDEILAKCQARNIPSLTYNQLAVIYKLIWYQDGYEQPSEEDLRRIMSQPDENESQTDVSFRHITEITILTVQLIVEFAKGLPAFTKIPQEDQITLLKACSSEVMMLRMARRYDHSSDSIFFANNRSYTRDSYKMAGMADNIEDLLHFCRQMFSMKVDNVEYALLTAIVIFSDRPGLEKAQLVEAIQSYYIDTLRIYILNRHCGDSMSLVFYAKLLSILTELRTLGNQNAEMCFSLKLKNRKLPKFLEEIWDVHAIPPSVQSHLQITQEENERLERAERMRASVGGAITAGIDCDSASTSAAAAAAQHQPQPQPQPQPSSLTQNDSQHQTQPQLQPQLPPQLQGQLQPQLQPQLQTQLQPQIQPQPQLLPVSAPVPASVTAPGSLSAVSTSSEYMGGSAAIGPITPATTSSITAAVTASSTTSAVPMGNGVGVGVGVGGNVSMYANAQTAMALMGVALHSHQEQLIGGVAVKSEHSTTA
T1 sequence (P19793 1-462 partner): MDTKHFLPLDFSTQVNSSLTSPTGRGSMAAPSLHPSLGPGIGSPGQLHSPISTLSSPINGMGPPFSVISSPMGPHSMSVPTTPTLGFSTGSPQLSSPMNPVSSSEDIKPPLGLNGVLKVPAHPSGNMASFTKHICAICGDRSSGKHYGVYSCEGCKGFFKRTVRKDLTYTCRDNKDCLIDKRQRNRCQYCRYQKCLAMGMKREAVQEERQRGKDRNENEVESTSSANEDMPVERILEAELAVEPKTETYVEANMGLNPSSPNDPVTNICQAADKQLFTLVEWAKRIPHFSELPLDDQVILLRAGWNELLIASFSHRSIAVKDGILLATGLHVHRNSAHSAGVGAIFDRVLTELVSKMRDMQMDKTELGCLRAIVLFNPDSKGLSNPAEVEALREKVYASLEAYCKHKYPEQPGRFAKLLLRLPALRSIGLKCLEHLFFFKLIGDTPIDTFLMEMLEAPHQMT
Experiment: Luciferase gene activation in transiently transfected CHO cells
Type: cell-based
Details: ligand 10 μM; for Luciferase activity: average of duplicate samples, no ligand = 42; for Induction Ratio (RLU in presence and absence of the ligand): luciferase
Source text: pVgRXR (Invitrogen Corp., Carlsbad, Calif.) is an […] plasmid that expresses both VgEcR and RXR to form a modified heterodimeric nuclear receptor (see No, D., et. al., (1996) Proc. Natl. Acad. Sci. USA, 93, 3346-3351). The ecdysone receptor (VgEcR) is derived from the natural Drosophila ecdysone receptor and modified to contain the VP16 transactivation domain (see Cress, W. D., and Triezenberg, S. J. (1991), Science 251, 87-90; Sadowski, I., et. al (1988) Nature 335, 563-564; Triezenberg, S. J et. al., (1988), Genes Dev 2, 718-729; Triezenberg, S. J., et. al., (1988), Genes Dev 2, 730-742). RXR as the mammalian homologue of USP (ultraspiracle), the natural partner to the Drosophila ecdysone receptor (see Yao, T. -P., et. al., (1993), Nature 366, 476-479, Yao, T. -P., et. al., (1992), Cell 71, 63-72). The P-box region of the VgEcR DNA binding domain was modified to recognize the hybrid ecdysone response element that consists of one half-site from the gluccorticoid response element (see Umesono, K., and Evans, R. M. (1989), Cell 57, 1139-1146) and one half-site from the natural ecdysone response element. This hybrid response element reduces any possible interaction with the farsenoid X receptor that may bind the natural ecdysone responsive element (EcRE). The cytomegalovirus enhancer-promoter drives expression of VgEcR, and the Rous sarcoma virus promoter drives expression of RXR. The vector pIND (Invitrogen Corp) is a 5024 bp vector based on pcDNA3.1. It contains five hybrid E/GREs recognized by the modified ecdysone receptor expressed from pVgRXR and a minimal heat shock promoter (see Yao, T. P., et. al., (1993), Nature, 366, 476-479). pIND/lacZ (Invitrogen Crop.) is a 8170 bp plasmid that contains the β-galactosidase gene as a reporter enzyme. Cotransfection of pIND/lacZ and pVgRXR results in the induction of β-galactosidase expression upon addition of ecdysone agonists such as muristerone A. The reporter plasmid pIND/luc was constructed by subcloning the firefly luciferase gene from pGL3 (Promega/E1741) as a Nhe I-BamHI fragment into pIND, also digested with Nhe I and BamHI.
CHO cells (ATCC #CCL-61) were maintained by F-12 Nutrient mixture (Ham's media) (Gibco/BRL, 11765-054) supplemented with 10% fetal bovine serum, (FBS, complete medium; Gibco/BRL, 16000-036). These cells were maintained at 37° C. in 5% CO2 in 95% atmospheric air.
The CHO cells were seeded into 12-well tissue culture plates at a concentration of 0.5×10^5 cells per ml per well. The lipid Pfx-8 (Invitrogen, T930-18) was used to transiently transfect the ecdysone inducible expression system (Invitrogen catalog number K1000-01). The ecdysone inducible expression system consists of pVgRXR, encoding the receptor subunits, and pIND/lacZ or pIND/luc, containing the response element and a reporter gene encoding β-galactosidase or luciferase respectively. Twenty-four hours after seeding cells, the lipid/DNA solution was prepared by 0.5 mg/ml of VgRXR and 0.5 mg/ml pIND/lacZ or pIND/luc DNAs in sterile water. Thirty-six μl of Pfx-8 was diluted in a sterile 17×100 mm polystyrene tube containing 1.5 ml Opti-MEM medium (Gibco/BRL, 31985). Six μl of the plasmid DNA stock was mixed with 1.5 ml of Opti-MEM medium in another polystyrene tube. The DNA and the lipid solutions were combined to make 3 ml of transfection solution (enough for one set of triplicate samples). Cells were washed with phosphate buffered solution (PBS; Gibco/BRL, 14190-144) three times by aspirating medium from the cells. One ml transfection solution was added per well. Cells were incubated for four hours, and the transfection medium replaced with the same volume of complete medium. Cells were incubated for an additional 20 hours.
Stock solutions (10^−2 M) were prepared for muristerone A and the non-steroidal ligands of the present invention in ethanol and acetone respectively, and stored at −20° C. […]

Structure (SMILES)	Luciferase activity	Induction Ratio (RLU in presence and absence of the ligand)
CC(C)CC[C@@H](O)[C@](C)(O)[C@H]1CC[C@@]2(O)C3=CC(=O)[C@]4(O)C[C@@H](O)[C@@H](O)C[C@]4(C)[C@H]3[C@H](O)C[C@]12C [CE-3, muristerone A, reference compound]	316 RLU	8
CCc1c(OC)cccc1C(=O)NN(C(=O)c1cccc(OC)c1)C(C)(C)C [Ligand 1]	275 RLU	7
CC(C)CC[C@@H](O)[C@](C)(O)[C@H]1CC[C@@]2(O)C3=CC(=O)[C@@H]4C[C@@H](O)[C@@H](O)C[C@]4(C)[C@H]3CC[C@]12C [CE-4, ponasterone A, reference compound]	418 RLU	10
CC(C)(C)N(NC(=O)c1ccccc1)C(=O)c1ccccc1 [CE-2, 1,2-dibenzoyl-1-tert-butyl-hydrazine, reference compound]	36 RLU	1
CCc1c(OC)cccc1C(=O)NN(C(=O)c1cc(F)cc(F)c1)C(C)(C)C [Ligand 4]	251 RLU	6
CCOc1cccc(C(=O)NN(C(=O)c2cc(C)cc(C)c2)C(C)(C)C)c1CC [Ligand 12]	305 RLU	7
CCc1c(OC)cccc1C(=O)NN(C(=O)c1cc(Cl)cc(Cl)c1)C(C)(C)C [Ligand 13]	226 RLU	5
COc1cccc(C(=O)NN(C(=O)c2cc(C)cc(C)c2)C(C)(C)C)c1C [Ligand 3]	324 RLU	8
CCc1ccc(C(=O)NN(C(=O)c2cc(C)cc(C)c2)C(C)(C)C)cc1 [CE-1, N-(4-ethylbenzoyl)-N′-(3,5-dimethylbenzoyl)-N′-tert-butyl-hydrazine, reference compound]	89 RLU	2
CCc1c(OC)cccc1C(=O)NN(C(=O)c1cc(C)cc(C)c1)C(C)(C)C [Ligand 5]	313 RLU	8
Cc1cc(C)cc(C(=O)N(NC(=O)c2ccc3c(c2C)OCCO3)C(C)(C)C)c1 [Ligand 2]	204 RLU	5
